Results on 16 molecules are retold here after PubChem BioAssay (NCI).

Among the test systems are DMS 114 small cell lung; DMS 273 small cell lung; KM20L2 colon; M19-MEL melanoma; XF 498 CNS; HOP-18 NSCLC; P388 leukemia; P388/ADR leukemia; SN12K1 renal; RXF-631 renal.
What all share (assay): NCI tumour cell line growth inhibition, 48 h

Several values for one entry are separate records, joined by “and”; a condition that tells them apart may be missing. Equal values may be shown once.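 48-hour exposure; five concentrations; linearly interpolated endpoints. GI50 is the concentration that inhibits growth by half. TGI marks complete inhibition of growth.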

Turning to `CCC1=CC2CN3Cn4c(c(COCc5c6n(c7ccccc57)CN5CC7C=C(CC)C5C6(C(=O)OC)C7)c5ccccc54)C(C(=O)OC)(C2)C13`, the TGI in the test on DMS 114 small cell lung, in the test with DMS 273 small cell lung, in the test on KM20L2 colon, in the test on M19-MEL melanoma and with XF 498 CNS was greater than 100 µM throughout.
In the case of `CCN1CCCC(NCc2c3ccccc3c(CNC3CCCN(CC)C3)c3ccccc23)C1` (stereo not drawn), the TGI was 16.1 µM in the test on DMS 114 small cell lung; 18.2 µM in the test with DMS 273 small cell lung; greater than 46.6 µM in the test on HOP-18 NSCLC; 20.9 µM in the test with KM20L2 colon; 17.6 µM in the test on M19-MEL melanoma; 9.25 µM in the test on P388 leukemia. Also, the figures for the TGI in the test with P388/ADR leukemia, in the test with SN12K1 renal and with XF 498 CNS were 33.8 µM, 23.1 µM and greater than 52.1 µM, respectively.
As to `CSC(=Nc1ccccc1)N(c1ccccc1)c1nc(=[N+](C)C)ss1`, the TGI was determined as 0.46 µM with DMS 114 small cell lung, 2.2 µM with DMS 273 small cell lung, 13.7 µM in the test with KM20L2 colon and 4.98 µM in the test on M19-MEL melanoma.
`COc1c(O)c2c3c(c(C)cc(O)c3c1O)C(=O)C(O)(C(C)(C)C(C)=O)C2=O` (stereo not drawn): in the test with DMS 114 small cell lung, the GI50 is 13.3 µM and 55.3 µM. In addition, the TGI in the test with DMS 114 small cell lung is 28.2 µM and > 100 µM; in the test on DMS 273 small cell lung, greater than 100 µM; in the test with HOP-18 NSCLC, greater than 100 µM; in the test on KM20L2 colon it was greater than 100 µM; in the test with M19-MEL melanoma it was 28.1 µM and 35.3 µM; in the test with XF 498 CNS, greater than 100 µM.
As for `C=Cc1ccc(C)[n+](C[Si](C)(C)O[Si](C)(C)C[n+]2cc(C=C)ccc2C)c1`, the TGI with DMS 114 small cell lung, in the test with DMS 273 small cell lung, with HOP-18 NSCLC, in the test on KM20L2 colon and with M19-MEL melanoma was greater than 100 µM throughout.
As to `COc1ccc(CC2c3c(cc(OC)c(OC)c3OC)CCN2C)cc1OC` (stereo not drawn), the TGI in the test on HOP-18 NSCLC, with KM20L2 colon and with XF 498 CNS was greater than 100 µM each time.
As to `COc1cc2c(cc1OC)[C@H]1CN3CCC[C@H]3C=C1c1ccc(OC)c(O)c1-2`, the TGI in the test with DMS 114 small cell lung is 0.00014 µM; with DMS 273 small cell lung, 0.000139 µM; with HOP-18 NSCLC, 0.000181 µM; with M19-MEL melanoma, less than 0.0001 µM.
For `CC1=NN(C(=O)CC(=O)Nc2ccccc2F)C(=O)C1N=Nc1ccccc1[N+](=O)[O-]` (stereo not drawn), the TGI with DMS 114 small cell lung is greater than 100 µM; in the test with DMS 273 small cell lung it was greater than 100 µM; in the test with KM20L2 colon it was greater than 100 µM; with M19-MEL melanoma, 33.6 µM; in the test on XF 498 CNS it was greater than 100 µM.
Turning to `CC12CCC3C(CCC4CC(OC(=O)Cc5ccc(N(CCCl)CCCl)cc5)CCC43C)C1CCC(=O)N2` (stereo not drawn), the TGI in the test with DMS 114 small cell lung amounted to 25.6 µM; in the test with DMS 273 small cell lung, 25.6 µM; with HOP-18 NSCLC, 31.2 µM; with KM20L2 colon, 31.2 µM; in the test on M19-MEL melanoma, 33.5 µM; in the test on XF 498 CNS, 30.8 µM.
As for `CC(C(=O)N1C(=O)N(C(=O)C(C)C(O)c2ccccc2)C2CCCCC21)C(O)c1ccccc1` (stereo not drawn), the TGI in the test on DMS 273 small cell lung, with KM20L2 colon, with M19-MEL melanoma and in the test on XF 498 CNS was greater than 100 µM throughout.
Regarding `CC(=O)OCC1OC(n2cc(I)c(=O)[nH]c2=O)C(OC(C)=O)C(OC(C)=O)C1OC(C)=O` (stereo not drawn), the TGI in the test on DMS 114 small cell lung, with DMS 273 small cell lung, in the test with HOP-18 NSCLC, with KM20L2 colon, in the test with M19-MEL melanoma and with XF 498 CNS was greater than 100 µM each time.
Turning to `O=C1Sc2ccccc2C(=O)N2CSCC12` (stereo not drawn), the TGI with DMS 114 small cell lung, with DMS 273 small cell lung, in the test on HOP-18 NSCLC, in the test with KM20L2 colon, in the test on M19-MEL melanoma and in the test with XF 498 CNS was greater than 100 µM in each case.
In the case of `COc1ccc(-c2oc(/C=N/NC(N)=S)c([N+](=O)[O-])c2-c2ccc(OC)c(OC)c2)cc1OC`, the TGI with DMS 114 small cell lung is 46.8 µM; in the test on KM20L2 colon, 92.4 µM; in the test on M19-MEL melanoma, 63.1 µM; with RXF-631 renal, greater than 100 µM; in the test with XF 498 CNS, greater than 100 µM.
As for `CCN(CC)CCCNC(=O)c1ccc([N+](=O)[O-])cc1O`, the TGI in the test on DMS 114 small cell lung, in the test on DMS 273 small cell lung, with KM20L2 colon and in the test on RXF-631 renal was greater than 100 µM each time.
With `CC(O)CCCOC(c1ccccc1)(c1ccccc1)c1ccccc1` (stereo not drawn), the TGI was found to be 26.4 µM in the test on DMS 114 small cell lung, 22.3 µM in the test with KM20L2 colon, 31 µM in the test on M19-MEL melanoma and 28.2 µM with XF 498 CNS.
Turning to `O=C(CN(c1ccccc1)c1ccccc1)N1c2ccccc2C2C=CC=CC21` (stereo not drawn), the TGI in the test with DMS 114 small cell lung is 23.1 µM; in the test on DMS 273 small cell lung, greater than 60.3 µM; in the test with HOP-18 NSCLC, 74.9 µM; in the test with KM20L2 colon, 55.4 µM; in the test on M19-MEL melanoma it was greater than 57.4 µM; in the test with XF 498 CNS it was 53.2 µM.
